pKi: −log10 of the molar value. Where only a bound is given, the exact number is not on record here.

Chain of hMC2 receptor (Q01718 whole entry): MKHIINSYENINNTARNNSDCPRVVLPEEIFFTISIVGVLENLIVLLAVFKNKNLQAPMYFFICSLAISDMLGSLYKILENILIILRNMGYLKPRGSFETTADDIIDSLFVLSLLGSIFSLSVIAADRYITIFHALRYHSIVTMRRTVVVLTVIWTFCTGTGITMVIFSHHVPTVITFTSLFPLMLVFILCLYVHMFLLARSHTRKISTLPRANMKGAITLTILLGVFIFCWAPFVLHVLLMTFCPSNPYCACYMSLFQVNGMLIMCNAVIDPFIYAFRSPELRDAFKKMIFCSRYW
Chain of hMC2 receptor (Q8TCY5 whole entry partner): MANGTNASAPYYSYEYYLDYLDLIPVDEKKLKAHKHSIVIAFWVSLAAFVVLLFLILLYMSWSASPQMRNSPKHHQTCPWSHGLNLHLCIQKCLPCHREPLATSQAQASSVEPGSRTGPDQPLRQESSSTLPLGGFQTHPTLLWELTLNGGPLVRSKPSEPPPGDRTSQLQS

The assay concerns the target hMC2 receptor (Homo sapiens, UniProt Q01718). Kind of assay: hMC2 membrane binding assay ([125I]ACTH (1-39) Tyr23, SPA). The conditions noted are these: crude hMC2R membranes from CRE-bla-CHO-K1 cells expressing hMC2 receptor and hMRAP; [125I]ACTH (1-39) Tyr23 0.2 nM; 1.5 hours at room temperature; read-out: MC2R binding potency. Also noted: scale not given here. The method, boiled down: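 CRE-bla-CHO-K1 membranes co-expressing hMC2 receptor and hMRAP, preincubated with WGA PVT SPA beads in pH 7.4 HEPES/MgCl2/CaCl2/0.2% BSA buffer. Compounds (typically 0–10,000 nM final) compete with 0.2 nM [125I]ACTH(1-39) Tyr23 for 1.5 h at room temperature. SPA counts give Ki by non-linear regression.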
On to `CCOc1ccccc1-c1ccc(N2CCN(C(=O)N3CCc4cccc(C#N)c43)C[C@H]2CC)c(C(=O)NC2CN(C)C2)n1` [Compound 1-414, 3-[(2R)-4-(7-cyano-2,3-dihydro-1H-indole-1-carbonyl)-2-ethylpiperazin-1-yl]-6-(2-ethoxyphenyl)-N-(1-methylazetidin-3-yl)pyridine-2-carboxamide], for which the pKi was more than 8.00.

For the molecule `CCOc1ncccc1-c1ccc(N2CCN(C(=O)c3ccc(Cl)cc3C(F)(F)F)C[C@H]2CC)c(C(=O)N[C@@H]2CCCNC2)c1` [Compound 1-99, 2-[(2R)-4-[4-chloro-2-(trifluoromethyl)benzoyl]-2-ethylpiperazin-1-yl]-5-(2-ethoxypyridin-3-yl)-N-[(3R)-piperidin-3-yl]benzamide], the pKi was more than 8.00. The same measure for `CCOc1ncccc1-c1ccc(N2CCN(C(=O)c3ccc(Cl)cc3C(F)F)C[C@H]2CC)c(C(=O)N[C@@H]2CCN(C)C2)n1` [Compound 1-262, 5-[(2R)-4-[4-chloro-2-(difluoromethyl)benzoyl]-2-ethylpiperazin-1-yl]-2′-ethoxy-N-[(3R)-1-methylpyrrolidin-3-yl]-[2,3′-bipyridine]-6-carboxamide]: more than 8.00; for `CCOc1ccccc1-c1ccc(N2CCN(C(=O)n3ccc4cccc(C(F)(F)F)c43)C[C@H]2CC)c(C(=O)N[C@@H]2CCN(C)C2)n1` [Compound 1-437, 6-(2-ethoxyphenyl)-3-[(2R)-2-ethyl-4-[7-(trifluoromethyl)-1H-indole-1l-carbonyl]piperazin-1-yl]-N-[(3R)-1-methylpyrrolidin-3-yl]pyridine-2-carboxamide]: more than 8.00; for `CCOc1ncccc1-c1ccc(N2CCN(C(=O)c3ccc(OC)nc3C(F)(F)F)C[C@H]2CC)c(CN)n1` [Compound 2-31, 1-{2′-ethoxy-5-[(2R)-2-ethyl-4-[6-methoxy-2-(trifluoromethyl)pyridine-3-carbonyl]piperazin-1-yl]-[2,3′-bipyridin]-6-yl}methanamine]: more than 8.00. Next, `CCOc1ncccc1-c1ccc(N2CCN(C(=O)c3ccc(OC)nc3C(F)(F)F)C[C@H]2CC)c(C(=O)N[C@@H]2CCNC2)n1` [Compound 1-240, 2′-ethoxy-5-[(2R)-2-ethyl-4-[6-methoxy-2-(trifluoromethyl)pyridine-3-carbonyl]piperazin-1-yl]-N-[(3R)-pyrrolidin-3-yl]-[2,3′-bipyridine]-6-carboxamide]: more than 8.00.

For the molecule `CCOc1ncccc1-c1ccc(N2CCN(C(=O)C3(C(F)(F)F)CCCC3)C[C@H]2CC)c(C(=O)NC23CCN(CC2)C3)n1` [Compound 1-405, N-{1-azabicyclo[2.2.1]heptan-4-yl}-2′-ethoxy-5-[(2R)-2-ethyl-4-[1-(trifluoromethyl)cyclopentanecarbonyl]piperazin-1-yl]-[2,3′-bipyridine]-6-carboxamide], the pKi was more than 8.00. The same measure for `CCOc1ncccc1-c1ccc(N2CCN(C(=O)c3ccc(Cl)cc3C(F)(F)F)C[C@H]2CC)c(C(=O)N[C@H]2CNC[C@H]2F)n1` [Compound 1-275, 5-[(2R)-4-[4-chloro-2-(trifluoromethyl)benzoyl]-2-ethylpiperazin-1-yl]-2′-ethoxy-N-[(3S,4R)-4-fluoropyrrolidin-3-yl]-[2,3′-bipyridine]-6-carboxamide]: more than 8.00; for `CC[C@@H]1CN(C(=O)c2ccc(C(F)(F)F)cc2Cl)CCN1c1ccc(-c2ccccc2C(=O)OC)cc1C(=O)NCCN` [Compound 1-19, methyl (R)-3′-((2-aminoethyl)carbamoyl)-4′-(4-(2-chloro-4-(trifluoromethyl)benzoyl)-2-ethylpiperazin-1-yl)-[1,1′-biphenyl]-2-carboxylate]: 7.00 to 8.00; for `CCOc1ncccc1-c1ccc(N2CCN(C(=O)O[C@H](c3ccccc3)C(F)(F)F)C[C@H]2CC)c(C(=O)N[C@@H]2CCNC2)n1` [Compound 1-351, (1R)-2,2,2-trifluoro-1-phenylethyl (3R)-4-(2′-ethoxy-6-{[(3R)-pyrrolidin-3-yl]carbamoyl}-[2,3′-bipyridin]-5-yl)-3-ethylpiperazine-1-carboxylate]: more than 8.00.
